From US12617797B2, “Substituted pyrazolo [1,5-a]pyrimidines having multimodal activity against pain” (ESTEVE PHARMACEUTICALS, S.A., priority 2020, dated 2026)

Experiments:
[1] = molecular target: Human α2δ-1 subunit of Cav2.2 calcium channel (Homo sapiens, UniProt P54289); assay: Human α2δ-1 subunit of Cav2.2 calcium channel assay ([3H]-gabapentin binding); details: binding to the α2δ-1 subunit of voltage-gated calcium channels expressed as Ki; + also covers inhibition between 1% and 50%
Method: Biological Activity Pharmacological Study Human α2δ-1 Subunit of Cav2.2 Calcium Channel Assay
Human α2δ-1 enriched membranes (2.5 μg) were incubated with 15 nM of radiolabeled [^3H]-Gabapentin in assay buffer containing Hepes-KOH 10 mM, pH 7.4. NSB (non specific binding) was measured by adding 10 μM pregabalin. The binding of the test compound was measured at either one concentration (% inhibition at 1 or 10 μM) or five different concentrations to determine affinity values (Ki). After 60 min incubation at 27° C., binding reaction was terminated by filtering through Multiscreen GF/C (Millipore) presoaked in 0.5% polyethyleneimine in Vacuum Manifold Station, followed by 3 washes with ice-cold filtration buffer containing 50 mM Tris-HCl, pH 7.4. Filter plates were dried at 60° C. for 1 h and 30 μL of scintillation cocktail were added to each well before radioactivity reading. Readings were performed in a Trilux 1450 Microbeta radioactive counter (Perkin Elmer).

Human σ1 receptor = molecular target: T1, Human σ1 receptor (Homo sapiens, UniProt Q99720); assay: Human σ1 receptor radioligand assay ([3H](+)-pentazocine binding, transfected HEK-293 membranes); details: binding to σ1 receptor expressed as Ki; + also covers inhibition between 1% and 50%; read-out: σ-1 binding
T1 construct: expressed in transfected cells; host or cells: HEK-293
Method: Human σ1 Receptor Radioligand Assay
Transfected HEK-293 membranes (7 μg) were incubated with 5 nM of [^3H](+)-pentazocine in assay buffer containing Tris-HCl 50 mM at pH 8. NBS (non-specific binding) was measured by adding 10 μM haloperidol. The binding of the test compound was measured at either one concentration (% inhibition at 1 or 10 μM) or five different concentrations to determine affinity values (Ki). Plates were incubated at 37° C. for 120 minutes. After the incubation period, the reaction mix was then transferred to MultiScreen HTS, FC plates (Millipore), filtered and plates were washed 3 times with ice-cold 10 mM Tris-HCL (pH7.4). Filters were dried and counted at approximately 40% efficiency in a MicroBeta scintillation counter (Perkin-Elmer) using EcoScint liquid scintillation cocktail.

Human α2δ-1 subunit of Cav2.2 calcium channel, sequence (P54289 25-1103): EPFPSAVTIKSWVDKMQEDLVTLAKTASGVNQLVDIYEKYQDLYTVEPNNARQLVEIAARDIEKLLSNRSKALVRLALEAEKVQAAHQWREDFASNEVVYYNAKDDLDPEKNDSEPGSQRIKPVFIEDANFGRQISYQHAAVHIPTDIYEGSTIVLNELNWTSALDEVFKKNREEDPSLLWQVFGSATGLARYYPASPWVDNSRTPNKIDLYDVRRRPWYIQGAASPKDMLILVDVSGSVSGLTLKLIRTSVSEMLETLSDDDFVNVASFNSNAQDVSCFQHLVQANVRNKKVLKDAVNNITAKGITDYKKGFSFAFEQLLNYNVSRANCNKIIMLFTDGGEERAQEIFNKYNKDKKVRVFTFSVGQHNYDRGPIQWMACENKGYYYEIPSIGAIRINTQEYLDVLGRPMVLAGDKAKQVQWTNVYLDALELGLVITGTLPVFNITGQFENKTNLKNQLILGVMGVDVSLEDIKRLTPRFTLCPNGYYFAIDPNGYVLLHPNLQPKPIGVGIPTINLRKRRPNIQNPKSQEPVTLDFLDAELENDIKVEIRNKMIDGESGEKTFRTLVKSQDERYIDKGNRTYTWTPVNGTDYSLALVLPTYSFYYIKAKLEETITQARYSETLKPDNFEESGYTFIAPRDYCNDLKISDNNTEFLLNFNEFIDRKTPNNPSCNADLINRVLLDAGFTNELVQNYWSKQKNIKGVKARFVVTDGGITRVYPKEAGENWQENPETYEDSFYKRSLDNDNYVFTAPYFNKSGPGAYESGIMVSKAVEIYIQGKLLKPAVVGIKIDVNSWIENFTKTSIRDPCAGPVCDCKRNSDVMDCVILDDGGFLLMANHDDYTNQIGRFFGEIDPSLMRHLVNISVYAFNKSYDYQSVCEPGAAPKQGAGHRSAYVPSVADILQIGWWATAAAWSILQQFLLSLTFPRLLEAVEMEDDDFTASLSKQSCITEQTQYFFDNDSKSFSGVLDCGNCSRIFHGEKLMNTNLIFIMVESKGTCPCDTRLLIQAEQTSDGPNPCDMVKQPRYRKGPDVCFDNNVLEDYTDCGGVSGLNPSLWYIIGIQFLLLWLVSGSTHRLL
T1 sequence (Q99720 whole entry): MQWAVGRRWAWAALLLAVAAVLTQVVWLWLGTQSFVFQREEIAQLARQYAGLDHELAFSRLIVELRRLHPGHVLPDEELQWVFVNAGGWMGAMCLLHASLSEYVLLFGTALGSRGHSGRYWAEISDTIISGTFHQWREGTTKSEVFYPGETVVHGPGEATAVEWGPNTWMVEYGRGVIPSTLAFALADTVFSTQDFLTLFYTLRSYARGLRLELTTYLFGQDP

Row | SMILES | Ki [1] | Ki (Human σ1 receptor)
1 | CCCCN1CCCC(c2ccnc3cc(C)nn23)C1 (centres unmarked) [Example 64, 7-(1-Butylpiperidin-3-yl)-2-methylpyrazolo[1,5-a]pyrimidine] | > 5000 nM | < 500 nM
2 | Cc1cc2nccc(C3CCCN(Cc4c(F)cccc4F)C3)n2n1 (centres unmarked) [Example 65, 7-(1-(2,6-Difluorobenzyl)piperidin-3-yl)-2-methylpyrazolo[1,5-a]pyrimidine] | 500 to 5000 nM | > 1000 nM
3 | Cc1cc2nccc(C3CCCN(Cc4ccccn4)C3)n2n1 (centres unmarked) [Example 66, 2-Methyl-7-(1-(pyridin-2-ylmethyl)piperidin-3-yl)pyrazolo[1,5-a]pyrimidine] | > 5000 nM | > 1000 nM
4 | Cc1cc2nccc(C3CCCN(CCc4ccccc4)C3)n2n1 (centres unmarked) [Example 67, 2-Methyl-7-(1-phenethylpiperidin-3-yl)pyrazolo[1,5-a]pyrimidine] | > 5000 nM | > 1000 nM
5 | Cc1cc2nccc(C3CCCN(Cc4cccc(O)c4)C3)n2n1 (centres unmarked) [Example 68, 3-((3-(2-Methylpyrazolo[1,5-a]pyrimidin-7-yl)piperidin-1-yl)methyl)phenol] | > 5000 nM | > 1000 nM
6 | CCN1CCCC(c2ccnc3c(-c4ccncc4)c(C)nn23)C1 (centres unmarked) [Example 69, 7-(1-Ethylpiperidin-3-yl)-2-methyl-3-(pyridin-4-yl)pyrazolo[1,5-a]pyrimidine] | > 5000 nM | > 1000 nM
7 | CCCN1CCCC(c2ccnc3c(-c4ccncc4)c(C)nn23)C1 (centres unmarked) [Example 70, 2-Methyl-7-(1-propylpiperidin-3-yl)-3-(pyridin-4-yl)pyrazolo[1,5-a]pyrimidine] | > 5000 nM | > 1000 nM
8 | Cc1nn2c(C3CCCN(CC(C)C)C3)ccnc2c1-c1ccncc1 (centres unmarked) [Example 71, 7-(1-Isobutylpiperidin-3-yl)-2-methyl-3-(pyridin-4-yl)pyrazolo[1,5-a]pyrimidine] | > 5000 nM | > 1000 nM
9 | Cc1nn2c(C3CCCN(Cc4ccccn4)C3)ccnc2c1-c1ccncc1 (centres unmarked) [Example 72, 2-Methyl-7-(1-(pyridin-2-ylmethyl)piperidin-3-yl)-3-(pyridin-4-yl)pyrazolo[1,5-a]pyrimidine] | 500 to 5000 nM | > 1000 nM
10 | Cc1cnc2c(-c3ccncc3)cnn2c1C1CCCN(CCc2ccccc2)C1 (centres unmarked) [Example 73, 6-Methyl-7-(1-phenethylpiperidin-3-yl)-3-(pyridin-4-yl)pyrazolo[1,5-a]pyrimidine] | > 5000 nM | < 500 nM
11 | Cc1cnc2c(-c3ccncc3)cnn2c1C1CCCN(Cc2ccccn2)C1 (centres unmarked) [Example 74, 6-Methyl-7-(1-(pyridin-2-ylmethyl)piperidin-3-yl)-3-(pyridin-4-yl)pyrazolo[1,5-a]pyrimidine] | 500 to 5000 nM | > 1000 nM
12 | Cc1ccccc1CN1CCCC(c2ccnc3c(-c4ccncc4)c(C)nn23)C1 (centres unmarked) [Example 75, 2-Methyl-7-(1-(2-methylbenzyl)piperidin-3-yl)-3-(pyridin-4-yl)pyrazolo[1,5-a]pyrimidine] | 500 to 5000 nM | > 1000 nM
13 | Cc1ccc(CN2CCCC(c3ccnc4c(-c5ccncc5)c(C)nn34)C2)cc1 (centres unmarked) [Example 76, 2-Methyl-7-(1-(4-methylbenzyl)piperidin-3-yl)-3-(pyridin-4-yl)pyrazolo[1,5-a]pyrimidine] | 500 to 5000 nM | 500 to 1000 nM
14 | Cc1cccc(CN2CCCC(c3ccnc4c(-c5ccncc5)c(C)nn34)C2)c1 (centres unmarked) [Example 77, 2-Methyl-7-(1-(3-methylbenzyl)piperidin-3-yl)-3-(pyridin-4-yl)pyrazolo[1,5-a]pyrimidine] | > 5000 nM | > 1000 nM
15 | c1ccc(CN2CCCC(c3ccnc4cc(N5CCCC5)nn34)C2)cc1 (centres unmarked) [Example 78, 7-(1-Benzylpiperidin-3-yl)-2-(pyrrolidin-1-yl)pyrazolo[1,5-a]pyrimidine] | > 5000 nM | 500 to 1000 nM
16 | CN(CCO)c1cc2nccc(C3CCCN(Cc4ccccc4)C3)n2n1 (centres unmarked) [Example 79, 2-((7-(1-Benzylpiperidin-3-yl)pyrazolo[1,5-a]pyrimidin-2-yl)(methyl)amino)ethanol] | > 5000 nM | > 1000 nM
17 | CN(CCN)c1cc2nccc(C3CCCN(Cc4ccccc4)C3)n2n1 (centres unmarked) [Example 80, N^1-(7-(1-Benzylpiperidin-3-yl)pyrazolo[1,5-a]pyrimidin-2-yl)-N^1-methylethane-1,2-diamine] | 500 to 5000 nM | > 1000 nM

Row | SMILES | Ki [1] | Ki (Human σ1 receptor)
18 | CNCCN(C)c1cc2nccc(C3CCCN(Cc4ccccc4)C3)n2n1 (centres unmarked) [Example 81, N^1-(7-(1-Benzylpiperidin-3-yl)pyrazolo[1,5-a]pyrimidin-2-yl)-N^1,N^2-dimethylethane-1,2-diamine] | 500 to 5000 nM | > 1000 nM
19 | CN(c1cc2nccc(C3CCCN(Cc4ccccc4)C3)n2n1)C1CCNCC1 (centres unmarked) [Example 82, 7-(1-Benzylpiperidin-3-yl)-N-methyl-N-(piperidin-4-yl)pyrazolo[1,5-a]pyrimidin-2-amine] | 500 to 5000 nM | > 1000 nM
20 | CNCCNc1cc2nccc(C3CCCN(Cc4ccccc4)C3)n2n1 (centres unmarked) [Example 83, N^1-(7-(1-Benzylpiperidin-3-yl)pyrazolo[1,5-a]pyrimidin-2-yl)-N^2-methylethane-1,2-diamine] | 500 to 5000 nM | > 1000 nM
21 | CN[C@@H]1CCN(c2cc3nccc([C@@H]4CCCN(Cc5ccccc5)C4)n3n2)C1 [Example 84, (R)-1-(7-((R)-1-Benzylpiperidin-3-yl)pyrazolo[1,5-a]pyrimidin-2-yl)-N-methylpyrrolidin-3-amine] | 500 to 5000 nM | > 1000 nM
22 | CN[C@H]1CCN(c2cc3nccc([C@H]4CCCN(Cc5ccccc5)C4)n3n2)C1 [Example 85, (S)-1-(7-((S)-1-Benzylpiperidin-3-yl)pyrazolo[1,5-a]pyrimidin-2-yl)-N-methylpyrrolidin-3-amine] | > 5000 nM | > 1000 nM
23 | CN[C@H]1CCN(c2cc3nccc([C@@H]4CCCN(Cc5ccccc5)C4)n3n2)C1 [Example 86, (S)-1-(7-((R)-1-Benzylpiperidin-3-yl)pyrazolo[1,5-a]pyrimidin-2-yl)-N-methylpyrrolidin-3-amine] | 500 to 5000 nM | > 1000 nM
24 | CN[C@@H]1CCN(c2cc3nccc([C@H]4CCCN(Cc5ccccc5)C4)n3n2)C1 [Example 87, (R)-1-(7-((S)-1-Benzylpiperidin-3-yl)pyrazolo[1,5-a]pyrimidin-2-yl)-N-methylpyrrolidin-3-amine] | 500 to 5000 nM | > 1000 nM
25 | c1ccc(CN2CCCC(c3ccnc4c(N5CCCC5)cnn34)C2)cc1 (centres unmarked) [Example 88, 7-(1-Benzylpiperidin-3-yl)-3-(pyrrolidin-1-yl)pyrazolo[1,5-a]pyrimidine] | > 5000 nM | 500 to 1000 nM
26 | Cc1nn2c(C3CCCN(Cc4ccccc4)C3)ccnc2c1N1CCCC1 (centres unmarked) [Example 89, 7-(1-Benzylpiperidin-3-yl)-2-methyl-3-(pyrrolidin-1-yl)pyrazolo[1,5-a]pyrimidine] | 500 to 5000 nM | 500 to 1000 nM
27 | Cc1nn2c(C3CCCN(Cc4ccccc4)C3)ccnc2c1N (centres unmarked) [Example 90, 7-(1-Benzylpiperidin-3-yl)-2-methylpyrazolo[1,5-a]pyrimidin-3-amine] | > 5000 nM | > 1000 nM
28 | N#Cc1cc2nccc(C3CCCN(Cc4ccccc4)C3)n2n1 (centres unmarked) [Example 91, 7-(1-Benzylpiperidin-3-yl)pyrazolo[1,5-a]pyrimidine-2-carbonitrile] | 500 to 5000 nM | > 1000 nM
29 | CN(C)Cc1cc2nccc(C3CCCN(Cc4ccccc4)C3)n2n1 (centres unmarked) [Example 92, 1-(7-(1-Benzylpiperidin-3-yl)pyrazolo[1,5-a]pyrimidin-2-yl)-N,N-dimethylmethanamine] | 500 to 5000 nM | > 1000 nM
30 | CNCc1cc2nccc(C3CCCN(Cc4ccccc4)C3)n2n1 (centres unmarked) [Example 93, 1-(7-(1-Benzylpiperidin-3-yl)pyrazolo[1,5-a]pyrimidin-2-yl)-N-methylmethanamine] | 500 to 5000 nM | > 1000 nM
31 | c1ccc(CNCc2cc3nccc(C4CCCN(Cc5ccccc5)C4)n3n2)cc1 (centres unmarked) [Example 94, N-Benzyl-1-(7-(1-benzylpiperidin-3-yl)pyrazolo[1,5-a]pyrimidin-2-yl)methanamine] | 500 to 5000 nM | > 1000 nM
32 | Cc1nn2c(C3CCCN(Cc4ccccc4)C3)ccnc2c1CO (centres unmarked) [Example 95, (7-(1-Benzylpiperidin-3-yl)-2-methylpyrazolo[1,5-a]pyrimidin-3-yl)methanol] | > 5000 nM | > 1000 nM
33 | CNCc1c(C)nn2c(C3CCCN(Cc4ccccc4)C3)ccnc12 (centres unmarked) [Example 96, 1-(7-(1-Benzylpiperidin-3-yl)-2-methylpyrazolo[1,5-a]pyrimidin-3-yl)-N-methylmethanamine] | 500 to 5000 nM | > 1000 nM
34 | Cc1nn2c(C3CCCN(Cc4ccccc4)C3)ccnc2c1CNCCc1ccccc1 (centres unmarked) [Example 97, N-((7-(1-Benzylpiperidin-3-yl)-2-methylpyrazolo[1,5-a]pyrimidin-3-yl)methyl)-2-phenylethanamine] | 500 to 5000 nM | < 500 nM
